From the NIST ThermoML archive (doi:10.1016/j.fluid.2006.01.027)
Numbers after ± are expanded uncertainties.

Details: Liquid, Pulse-echo method

C=CCCCCCCCCCCCCCC [1-hexadecene]
speed of sound [m/s]
Details	373.15 K	383.15 K	393.15 K	403.15 K	413.15 K	423.15 K	433.15 K
100 kPa	1073.8 ± 2.5	1041.7 ± 2.5	1010.2 ± 2.4	979.2 ± 2.4	948.7 ± 2.4	918.8 ± 2.3	889.2 ± 2.3
2500 kPa	1091.4 ± 2.6	1060.1 ± 2.5	1029.3 ± 2.5	999.1 ± 2.4	969.4 ± 2.4	940.3 ± 2.4	911.7 ± 2.3
5000 kPa	1109.2 ± 2.6	1078.6 ± 2.5	1048.5 ± 2.5	1019 ± 2.4	990.1 ± 2.4	961.8 ± 2.4	934 ± 2.3
10000 kPa	1143.1 ± 2.6	1113.6 ± 2.6	1084.8 ± 2.5	1056.6 ± 2.5	1029 ± 2.5	1002 ± 2.4	975.7 ± 2.4
15000 kPa	1175 ± 2.7	1146.5 ± 2.6	1118.8 ± 2.6	1091.6 ± 2.6	1065.2 ± 2.5	1039.3 ± 2.5	1014.1 ± 2.4
20000 kPa	1205.2 ± 2.7	1177.7 ± 2.7	1150.8 ± 2.6	1124.6 ± 2.6	1099 ± 2.6	1074.1 ± 2.5	1049.8 ± 2.5
30000 kPa	1261.4 ± 2.8	1235.3 ± 2.8	1209.9 ± 2.7	1185.2 ± 2.7	1161.2 ± 2.7	1137.8 ± 2.6	1115 ± 2.6
40000 kPa	1313 ± 2.9	1288.1 ± 2.9	1263.8 ± 2.8	1240.3 ± 2.8	1217.4 ± 2.7	1195.2 ± 2.7	1173.6 ± 2.7
60000 kPa	1405.5 ± 3.1	1382.4 ± 3	1360 ± 3	1338.2 ± 3	1317 ± 2.9	1296.5 ± 2.9	1276.6 ± 2.8
80000 kPa	1487.6 ± 3.2	1465.8 ± 3.2	1444.6 ± 3.2	1424.1 ± 3.1	1404.2 ± 3.1	1384.9 ± 3	1366.2 ± 3
100000 kPa	1561.6 ± 3.4	1540.9 ± 3.3	1520.8 ± 3.3	1501.3 ± 3.3	1482.4 ± 3.2	1464 ± 3.2	1446.2 ± 3.2
